Test results reported in patent US7521071B2, “Formulation of oral compositions comprising arsenic trioxide and methods of use thereof” (Versitech Limited, priority 2002, dated 2009).
Marks after values point to notes of the source that are not given here.

What was measured:
[1] = system: acute promyelocytic leukemia (APL); details: cited from earlier work
[2] = Oral arsenic bioavailability: plasma and whole blood arsenic AUC after IV (day 1) and oral (day 2) As2O3; type: in vivo, human patients
Experimental: As diets containing seafood contain arsenic, each patient was instructed to refrain from seafood, preferably for at least one week before arsenic administration. On day-1 at 10 A.M., 10 mg of a standard, commercially available IV As2O3 formulation (from Ophthalmic Laboratories, Sydney, Australia) diluted in 100 ml of Sodium Chloride 0.9% solution was infused IV over 60 minutes. At 10 A.M. on day-2 (i.e., 24 hours after the start of the IV infusion), each patient swallowed a 10 mg dose (10 ml) of our oral AS2O3 solution and none were instructed to fast before or during their treatment.
Venous blood samples were drawn (11 ml) prior to As2O3 administration on day-1 and subsequently at the following times after the beginning of the IV infusion: 1, 2, 3, 4, 6, 8, 24, 25, 26, 27, 28, 30, 32 and 48 hours. […] The plasma from the lithium-heparin tube was freshly separated and both the plasma and whole blood samples were stored at 4° C. and subsequently analyzed in batches.
Plasma and whole blood arsenic concentration were assayed after the samples were deproteinized with 3% (w/v) trichloroacetic acid and then mixed with matrix modifiers. […] Concentrations are therefore expressed as nmol/L of arsenic above basal values. […]

[3] = Arsenic in plasma and cellular fraction of blood at 48 hours; type: in vivo, human patients
Experimental: Venous blood samples were drawn (11 ml) prior to As2O3 administration on day-1 and subsequently at the following times after the beginning of the IV infusion: 1, 2, 3, 4, 6, 8, 24, 25, 26, 27, 28, 30, 32 and 48 hours. Five ml from each sample were collected in a non-gel lithium-heparin tube (for determination of plasma arsenic level) and 3 ml×2 in EDTA tubes (for determination of whole blood level). The plasma from the lithium-heparin tube was freshly separated and both the plasma and whole blood samples were stored at 4° C. and subsequently analyzed in batches.
Plasma and whole blood arsenic concentration were assayed after the samples were deproteinized with 3% (w/v) trichloroacetic acid and then mixed with matrix modifiers. The matrix modifiers contained magnesium nitrate (10 g/L), palladium chloride (6 g/L), and ammonium sulphite (20 g/L) in 0.5% Triton X 100. All chemicals were of analytical grade and were obtained from Sigma (St Louis, Mo.). The treated samples were assayed for total arsenic concentration in whole blood and plasma (which includes As2O3 per se and its metabolites) by graphite furnace atomic absorption spectrophotometry (Simma 6000, Perkin-Elmer, Norwalk, Conn.). Concentrations are therefore expressed as nmol/L of arsenic above basal values. The between-day coefficient of variation of this method was 7.5-9.6% for arsenic concentrations varying from 559 to 2169 nmol/L. The accuracy of this method was assessed by spiking known amounts of arsenic into patient samples; recovery being 97.3-101.3% for concentrations varying from 301 to 678 nmol/L.
The concentration of arsenic in the cellular fraction of blood (Cc) at 48 hours after the initial intravenous dose was calculated from the corresponding plasma (Cp) and whole blood (Cb) concentrations and the prevailing hematocrit (Hct) value as follows:
Nano mols of arsenic in the plasma from 1 liter of blood=Cp(1-Hct).
Accordingly, the mass of arsenic in the remaining cellular fraction in 1 liter of blood amounts to Cb-[Cp(1-Hct)].
Thus, the concentration (weight/volume) of arsenic per liter of the cellular fraction of the blood Cc={Cb-[Cp(1-Hct)]}/Hct.

[4] = Safety monitoring in Example 1 (ECG, complications); type: in vivo, human patients
Experimental: Demographic features as well as details pertaining to each patient's disease state (including laboratory findings) were recorded throughout the period of study. Their subsequent clinical progress and pertinent laboratory results were also logged. The University of Hong Kong Faculty of Medicine Ethics Committee approved the entire protocol.
The demographic features, basal arsenic concentrations, disease status, and treatment outcomes of each patient are shown in Table 2.

[5] = system: PML/RARA; assay: Molecular monitoring of PML/RARA (PCR) in Example 2; type: in vivo, human patients
Experimental: Twelve consecutive unselected patients with relapsed APL were treated with oral-As2O3 (see Table 4). The relapse was confirmed morphologically (>30% blasts+abnormal promyelocytes in the marrow) and cytogenetically (presence of t(15;17), with none of the cases showing additional karyotyic aberrations) or molecularly (presence of PML/RARA). The treatment was given with informed consent, and the protocol was approved by the University of Hong Kong Faculty of Medicine Ethics Committee.
However, PML/RARA became negative in 11 cases 3-6 months post-remission, and remained negative until the latest bone marrow examination. PCR in patient no. 1 became positive shortly before R2.

[6] = As2O3 powder; cited from earlier work

## S1[As]2S[As]3S[As]2S[As]13 [tetra-arsenic tetra-sulphide]
[1]; oral, Lu et al. Blood 2002
  efficacy in APL: highly efficacious in APL

## arsenic trioxide [As2O3]
[2]; plasma
  inter-individual variation in plasma AUCs among the nine patients: ≤ 5 fold
[2]; whole blood
  inter-individual variation in whole blood AUCs among the nine patients: ≤ 10 fold
[3]; 48 hours, mean of 9 patients
  Cellular Conc (Cc), Mean: 286 nM/L
  Plasma Conc (Cp), Mean: 85 nM/L
[3]; 48 hours, mean of 9 patients, p = 0.013 two tailed paired t-test
  Difference, Mean: 201* nM/L
[3]; except in patient no 1
  48-hour concentrations in the cellular fraction of blood higher than corresponding plasma concentrations: 2 to 3 fold
[3]; on average, p=0.013
  48-hour blood cell arsenic levels greater than in plasma: 270%
[4]; all nine patients receiving As2O3
  abnormal QTc prolongation on regularly performed ECGs: no instance of abnormal QTc prolongation
[4]; nine patients
  unexpected complications: No patient suffered unexpected complications
[5]; 3-6 months post-remission, of 12 patients
  cases in which PML/RARA became negative: 11 cases
[5]; all patients
  PML/RARA after As2O3-induced CR: remained positive in all patients
[6]
  solubility in cold water: sparingly and extremely slowly soluble
[1]; literature (Shen 1997, Soignet 1998, Niu 1999)
  remissions induced in APL patients: over 90%
